Results taken from PMC8348019.

Assay: head-to-tail lactamisation of linear tetramer (amino acid/peptoid hybrids) with HATU (1.5 equiv), DIPEA (8 equiv); dropwise addition of linear precursor to HATU solution
Details: the molecule shown is the open-chain precursor; 12-membered ring; DMF; 5.0 mM; 21.0 °C; 30.0 h; 10 steps

Compound: C=CCN(CC(=O)N[C@@H](Cc1ccccc1)C(=O)O)C(=O)[C@H]1CCCN1C(=O)CNC1CCCCC1 [H-(N-cyclohexyl)Gly-D-Pro-(N-allyl)Gly-Phe-OH]
- ring closure, overall yield: 50%

Compound: CCCC[C@H](NC(=O)[C@H]1CCCN1C(=O)[C@@H](N)[C@@H](C)CC)C(=O)N[C@@H](Cc1c[nH]c2ccccc12)C(=O)O [H-Ile-D-Pro-Nle-Trp-OH]
- ring closure, overall yield: 22%

Compound: CC[C@H](C)[C@H](N)C(=O)N1CCC[C@@H]1C(=O)N[C@@H](COC(C)(C)C)C(=O)N[C@@H](Cc1ccccc1)C(=O)O [H-Ile-D-Pro-Ser(tBu)-Phe-OH]
- ring closure, overall yield: 46%

Compound: CCCC[C@H](NC(=O)[C@H]1CCCN1C(=O)[C@@H](N)CC(C)C)C(=O)N[C@@H](Cc1ccccc1)C(=O)O [H-Leu-D-Pro-Nle-Phe-OH]
- ring closure, overall yield: 56%

Compound: CCCC[C@H](NC(=O)[C@H]1CCCN1C(=O)[C@@H](N)CC(C)C)C(=O)N[C@@H](Cc1c[nH]c2ccccc12)C(=O)O [H-Leu-D-Pro-Nle-Trp-OH]
- ring closure, overall yield: 36%

Compound: CCCC[C@H](NC(=O)[C@H]1CCCN1C(=O)[C@@H](N)Cc1ccccc1)C(=O)N[C@@H](Cc1c[nH]c2ccccc12)C(=O)O [H-Phe-D-Pro-Nle-Trp-OH]
- ring closure, overall yield: 38%
